Measured values reported in the supplement of paper PMC4862054.

Columns and labels:
Conditions in all cases: incubation time: 72 h
BT-474 [1] = test: normalised viability (% of control), CellTiter-Blue; higher = more viable cells (about 100 = DMSO control)
Method: (§1)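 DSRT, CellTiter-Blue viability, 72 h incubation. Signal is normalised to DMSO and benzethonium chloride controls. Value is the normalised response at dose 3.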

CAL-120 = test: as above
Method: as §1

CAL-148 = test: as above
Method: as §1

CAL-51 = test: as above
Method: as §1

CAL-85-1 = test: as above
Method: as §1

DU-4475 [2] = test: as above
Method: as §1

HCC1143 = test: as above
Method: as §1

HCC1599 [3] = test: as above
Method: as §1

HCC1937 [4] = test: as above
Method: as §1

HDQ-P1 = test: as above
Method: as §1

MDA-MB-231 [5] = test: as above
Method: as §1

MDA-MB-453 [6] = test: as above
Method: as §1

MDA-MB-468 = test: as above
Method: as §1

BT-474 [7] = test: drug sensitivity score (DSS), CellTiter-Blue viability (DSS (AUC-based score)); higher = stronger viability inhibition; extreme values may be limits of the assay
In short: (§2)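 The drug sensitivity score was derived from the area under a fitted dose-response curve. To obtain the curves, breast cancer cells (20 µl suspension) were plated into 384-well plates with compound at 5 or 9 concentrations and kept for 72 h. Viability was measured by CellTiter-Blue fluorescence at 560/590 nm, with each plate normalised to 0.1 % DMSO and a positive kill control.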

BT-549 = test: as above
In short: as §2

DU-4475 [8] = test: as above
In short: as §2

HCC1599 [9] = test: as above
In short: as §2

HCC1937 [10] = test: as above
In short: as §2

Hs578T = test: as above
In short: as §2

MDA-MB-231 [11] = test: as above
In short: as §2

MDA-MB-436 = test: as above
In short: as §2

MDA-MB-453 [12] = test: as above
In short: as §2

MFM-223 = test: as above
In short: as §2

## Cc1c2oc3c(C)ccc(C(=O)N[C@@H]4C(=O)N[C@H](C(C)C)C(=O)N5CCC[C@H]5C(=O)N(C)CC(=O)N(C)[C@@H](C(C)C)C(=O)O[C@@H]4C)c3nc-2c(C(=O)N[C@@H]2C(=O)N[C@H](C(C)C)C(=O)N3CCC[C@H]3C(=O)N(C)CC(=O)N(C)[C@@H](C(C)C)C(=O)O[C@@H]2C)c(N)c1=O [Dactinomycin]
BT-474 [1]; 10 nM
  normalised viability: 73.5%
CAL-120; 10 nM
  normalised viability: 31.4%
CAL-148; 1 nM
  normalised viability: 46.5%
CAL-51; 1 nM
  normalised viability: 77%
CAL-85-1; 1 nM
  normalised viability: 50.3%
DU-4475 [2]; 1 nM
  normalised viability: 32.1%
HCC1143; 10 nM
  normalised viability: 46.5%
HCC1599 [3]; 10 nM
  normalised viability: 49.3%
HCC1937 [4]; 10 nM
  normalised viability: 41.3%
HDQ-P1; 1 nM
  normalised viability: 59.2%
MDA-MB-231 [5]; 10 nM
  normalised viability: 27.3%
MDA-MB-453 [6]; 1 nM
  normalised viability: 49.7%
MDA-MB-468; 10 nM
  normalised viability: 18.9%
BT-474 [7]
  drug sensitivity score: 17.7
BT-549
  drug sensitivity score: 32.8
DU-4475 [8]
  drug sensitivity score: 38.4
HCC1599 [9]
  drug sensitivity score: 20.8
HCC1937 [10]
  drug sensitivity score: 21.8
Hs578T
  drug sensitivity score: 33.6
MDA-MB-231 [11]
  drug sensitivity score: 30.8
MDA-MB-436
  drug sensitivity score: 27.9
MDA-MB-453 [12]
  drug sensitivity score: 30.5
MFM-223
  drug sensitivity score: 20.1

## COc1cccc2c1C(=O)c1c(O)c3c(c(O)c1C2=O)C[C@@](O)(C(=O)CO)C[C@@H]3O[C@H]1C[C@H](N)[C@H](O)[C@H](C)O1 [Doxorubicin]
BT-474 [1]; 10 nM
  normalised viability: 95.5%
CAL-120; 10 nM
  normalised viability: 84.6%
CAL-148; 1 nM
  normalised viability: 96.6%
CAL-51; 1 nM
  normalised viability: 105%
CAL-85-1; 1 nM
  normalised viability: 95.7%
DU-4475 [2]; 1 nM
  normalised viability: 103%
HCC1143; 10 nM
  normalised viability: 83.4%
HCC1599 [3]; 10 nM
  normalised viability: 102%
HCC1937 [4]; 10 nM
  normalised viability: 98.9%
HDQ-P1; 1 nM
  normalised viability: 108%
MDA-MB-231 [5]; 10 nM
  normalised viability: 78.6%
MDA-MB-453 [6]; 1 nM
  normalised viability: 99.1%
MDA-MB-468; 10 nM
  normalised viability: 98.8%
BT-474 [7]
  drug sensitivity score: 4.12
BT-549
  drug sensitivity score: 7.93
DU-4475 [8]
  drug sensitivity score: 12.9
HCC1599 [9]
  drug sensitivity score: 3.59
HCC1937 [10]
  drug sensitivity score: 11.8
Hs578T
  drug sensitivity score: 9.11
MDA-MB-231 [11]
  drug sensitivity score: 9.57
MDA-MB-436
  drug sensitivity score: 8.25
MDA-MB-453 [12]
  drug sensitivity score: 4.31
MFM-223
  drug sensitivity score: 2.94

## Cc1ccc(F)c(NC(=O)Nc2ccc(-c3cccc4[nH]nc(N)c34)cc2)c1 [Linifanib]
BT-474 [1]; 10 nM
  normalised viability: 111%
CAL-120; 10 nM
  normalised viability: 95.2%
CAL-148; 1 nM
  normalised viability: 104%
CAL-51; 1 nM
  normalised viability: 102%
CAL-85-1; 1 nM
  normalised viability: 99%
DU-4475 [2]; 1 nM
  normalised viability: 96.5%
HCC1143; 10 nM
  normalised viability: 89.4%
HCC1599 [3]; 10 nM
  normalised viability: 108%
HCC1937 [4]; 10 nM
  normalised viability: 109%
HDQ-P1; 1 nM
  normalised viability: 108%
MDA-MB-231 [5]; 10 nM
  normalised viability: 103%
MDA-MB-453 [6]; 1 nM
  normalised viability: 106%
MDA-MB-468; 10 nM
  normalised viability: 123%
BT-474 [7]
  drug sensitivity score: 0
BT-549
  drug sensitivity score: 0
DU-4475 [8]
  drug sensitivity score: 0
HCC1599 [9]
  drug sensitivity score: 0
HCC1937 [10]
  drug sensitivity score: 0
Hs578T
  drug sensitivity score: 0
MDA-MB-231 [11]
  drug sensitivity score: 0
MDA-MB-436
  drug sensitivity score: 0
MDA-MB-453 [12]
  drug sensitivity score: 0
MFM-223
  drug sensitivity score: 0

## COc1cc(Nc2ncc3c(n2)-c2ccc(Cl)cc2C(c2c(F)cccc2OC)=NC3)ccc1C(=O)O [MLN8237]
BT-474 [1]; 100 nM
  normalised viability: 72.6%
CAL-120; 100 nM
  normalised viability: 68.2%
CAL-148; 10 nM
  normalised viability: 94.7%
CAL-51; 10 nM
  normalised viability: 98.2%
CAL-85-1; 10 nM
  normalised viability: 95%
DU-4475 [2]; 10 nM
  normalised viability: 102%
HCC1143; 100 nM
  normalised viability: 71.2%
HCC1599 [3]; 100 nM
  normalised viability: 97.7%
HCC1937 [4]; 100 nM
  normalised viability: 65.7%
HDQ-P1; 10 nM
  normalised viability: 111%
MDA-MB-231 [5]; 100 nM
  normalised viability: 75.5%
MDA-MB-453 [6]; 10 nM
  normalised viability: 84.3%
MDA-MB-468; 100 nM
  normalised viability: 62.6%
BT-474 [7]
  drug sensitivity score: 4.4
BT-549
  drug sensitivity score: 8.32
DU-4475 [8]
  drug sensitivity score: 22.9
HCC1599 [9]
  drug sensitivity score: 2.39
HCC1937 [10]
  drug sensitivity score: 17.8
Hs578T
  drug sensitivity score: 14.7
MDA-MB-231 [11]
  drug sensitivity score: 10.4
MDA-MB-436
  drug sensitivity score: 6.09
MDA-MB-453 [12]
  drug sensitivity score: 16.6
MFM-223
  drug sensitivity score: 9.51

## S=c1[nH]cnc2nc[nH]c12 [Mercaptopurine]
BT-474 [1]; 100 nM
  normalised viability: 111%
CAL-120; 100 nM
  normalised viability: 90.2%
CAL-148; 10 nM
  normalised viability: 94.1%
CAL-51; 10 nM
  normalised viability: 108%
CAL-85-1; 10 nM
  normalised viability: 93.9%
DU-4475 [2]; 10 nM
  normalised viability: 130%
HCC1143; 100 nM
  normalised viability: 92%
HCC1599 [3]; 100 nM
  normalised viability: 93.5%
HCC1937 [4]; 100 nM
  normalised viability: 104%
HDQ-P1; 10 nM
  normalised viability: 106%
MDA-MB-231 [5]; 100 nM
  normalised viability: 99.8%
MDA-MB-453 [6]; 10 nM
  normalised viability: 113%
MDA-MB-468; 100 nM
  normalised viability: 108%
BT-474 [7]
  drug sensitivity score: 0
BT-549
  drug sensitivity score: 0
DU-4475 [8]
  drug sensitivity score: 0
HCC1599 [9]
  drug sensitivity score: 0
HCC1937 [10]
  drug sensitivity score: 4.84
Hs578T
  drug sensitivity score: 0
MDA-MB-231 [11]
  drug sensitivity score: 0
MDA-MB-436
  drug sensitivity score: 0
MDA-MB-453 [12]
  drug sensitivity score: 0
MFM-223
  drug sensitivity score: 0

## Clc1ccc(C(c2ccccc2Cl)C(Cl)Cl)cc1 (stereo unspecified) [Mitotane]
BT-474 [1]; 100 nM
  normalised viability: 127%
CAL-120; 100 nM
  normalised viability: 86.3%
CAL-148; 10 nM
  normalised viability: 93.1%
CAL-51; 10 nM
  normalised viability: 112%
CAL-85-1; 10 nM
  normalised viability: 99.9%
DU-4475 [2]; 10 nM
  normalised viability: 98.6%
HCC1143; 100 nM
  normalised viability: 89.6%
HCC1599 [3]; 100 nM
  normalised viability: 107%
HCC1937 [4]; 100 nM
  normalised viability: 95.6%
HDQ-P1; 10 nM
  normalised viability: 99.1%
MDA-MB-231 [5]; 100 nM
  normalised viability: 91.7%
MDA-MB-453 [6]; 10 nM
  normalised viability: 102%
MDA-MB-468; 100 nM
  normalised viability: 98.8%
BT-474 [7]
  drug sensitivity score: 0
BT-549
  drug sensitivity score: 0
DU-4475 [8]
  drug sensitivity score: 0
HCC1599 [9]
  drug sensitivity score: 0
HCC1937 [10]
  drug sensitivity score: 0
Hs578T
  drug sensitivity score: 0
MDA-MB-231 [11]
  drug sensitivity score: 0
MDA-MB-436
  drug sensitivity score: 0
MDA-MB-453 [12]
  drug sensitivity score: 0
MFM-223
  drug sensitivity score: 0

## COc1cccc2cc(-c3nc([C@H]4CC[C@H](C(=O)O)CC4)n4ncnc(N)c34)[nH]c12 [OSI-027]
BT-474 [1]; 100 nM
  normalised viability: 95.1%
CAL-120; 100 nM
  normalised viability: 91.9%
CAL-148; 10 nM
  normalised viability: 92.6%
CAL-51; 10 nM
  normalised viability: 95.4%
CAL-85-1; 10 nM
  normalised viability: 92.8%
DU-4475 [2]; 10 nM
  normalised viability: 105%
HCC1143; 100 nM
  normalised viability: 119%
HCC1599 [3]; 100 nM
  normalised viability: 88.9%
HCC1937 [4]; 100 nM
  normalised viability: 84%
HDQ-P1; 10 nM
  normalised viability: 78.5%
MDA-MB-231 [5]; 100 nM
  normalised viability: 72.1%
MDA-MB-453 [6]; 10 nM
  normalised viability: 80.9%
MDA-MB-468; 100 nM
  normalised viability: 84.4%
BT-474 [7]
  drug sensitivity score: 9.76
BT-549
  drug sensitivity score: 6.62
DU-4475 [8]
  drug sensitivity score: 6.08
HCC1599 [9]
  drug sensitivity score: 5.99
HCC1937 [10]
  drug sensitivity score: 8.55
Hs578T
  drug sensitivity score: 9.33
MDA-MB-231 [11]
  drug sensitivity score: 6.73
MDA-MB-436
  drug sensitivity score: 13.1
MDA-MB-453 [12]
  drug sensitivity score: 13.7
MFM-223
  drug sensitivity score: 15.2
